Reference: paper PMC12860872, “Preclinical evaluation of DOTAGA.Glu.(FAPI)2 and DO3A.Glu.(FAPI)2 as theranostics with human dosimetry extrapolation to lutetium-177 and terbium-161 analogs” (European Journal of Nuclear Medicine and Molecular Imaging, 2025)
Values joined by “and” are separate entries in the source; they are usually repeats but may differ in a detail not shown here. Identical values can stand only once.

Assay: Extrapolated human dosimetry (OLINDA/EXM, ICRP-89 phantoms)
Protocol: To address inter-animal variability, the TIACs for each source organ were calculated from both the mean nTACs and the nTACs obtainend from fitting the mean ± 1 standard deviation (SD) of the normalized time-activity data, providing upper and lower bounds.
The mice-to-human TIAC extrapolation accounted for species-specific differences in relative source organ masses, m(organ), as compared to the total body weight (WB), for the mice (m) and human (h) models respectively.
The human organ masses, m(organ)h, were obtained from ICRP-89 adult male and female reference phantoms, while the murine organ masses, m(organ)m, were derived from the standard MOBY mouse model. The extrapolated human TIACs, TIACh were entered in the OLINDA/EXM software to compute the absorbed doses to target organs and the effective dose for adult male, female, and gender-averaged human models. […]
The TIACs, for [177Lu]Lu-DOTAGA.Glu.(FAPI)2 and [177Lu]Lu-DO3A.Glu.(FAPI)2, were determined by time integration of the nTACs. To account for the inter-animal variability, the TIACs for each source organ were calculated using both the mean nTACs and the nTACs obtainend from fitting the mean ±1 standard deviation (SD) of the normalized time-activity data. This approach provided the upper and the lower bounds for the estimated TIACs.
The mice-to-human TIAC extrapolation was obtained considering the different (species-specific) relative source organ masses, m(organ), as compared to the total body weight (WB), for the mice (m) and human (h) models respectively.
The human organ masses, m(organ)h, were obtained from the adult male and female reference models phantoms defined in ICRP-89, while the murine organ masses, m(organ)m, were derived from the standard MOBY mouse model. The extrapolated human TIACs values, TIACh, for each source organ were input into the kinetic module of the OLINDA/EXM software (version 2.1, HERMES Medical Solutions AB, Stockholm, Sweden) to compute the absorbed doses to target organs and the effective dose for adult male, female, and gender-averaged human models. […]

[1] = ICRP 89 Adult Female, extrapolated
[2] = ICRP 89 Adult Male, extrapolated

Structure (SMILES): N#C[C@@H]1CC(F)(F)CN1C(=O)CNC(=O)c1ccnc2ccc(OCCCCNC(=O)CC[C@H](NC(=O)CN3CCN(CC(=O)[O-])CCN(CC(=O)[O-])CCN(CC(=O)[O-])CC3)C(=O)NCCCCOc3ccc4nccc(C(=O)NCC(=O)N5CC(F)(F)C[C@H]5C#N)c4c3)cc12.[161Tb+3] [[^161Tb]Tb-DO3A.Glu.(FAPI)2]
- Absorbed dose (AD average) Adrenals [1]: 1.39E-02 mGy/Mbq
- Absorbed dose (AD average) Brain [1]: 3.68E-02 mGy/Mbq
- Absorbed dose (AD average) Breasts [1]: 3.54E-02 mGy/Mbq
- Absorbed dose (AD average) Esophagus [1]: 3.67E-02 mGy/Mbq
- Absorbed dose (AD average) Eyes [1]: 3.68E-02 mGy/Mbq
- Absorbed dose (AD average) Gallbladder Wall [1]: 3.79E-02 mGy/Mbq
- Absorbed dose (AD average) Heart Wall [1]: 3.39E-02 mGy/Mbq
- Absorbed dose (AD average) Kidneys [1]: 3.48E-02 ± 0.001 mGy/Mbq and 3.48E-02 mGy/Mbq
- Absorbed dose (AD average) Left colon [1]: 3.75E-02 mGy/Mbq
- Absorbed dose (AD average) Liver [1]: 1.01E-01 ± 0.004 mGy/Mbq and 1.01E-01 mGy/Mbq
- Absorbed dose (AD average) Lungs [1]: 5.78E-02 ± 0.01 mGy/Mbq and 5.78E-02 mGy/Mbq
- Absorbed dose (AD average) Osteogenic Cells [1]: 8.70E-02 ± 0.003 mGy/Mbq and 8.70E-02 mGy/Mbq
- Absorbed dose (AD average) Ovaries [1]: 3.75E-02 mGy/Mbq
- Absorbed dose (AD average) Pancreas [1]: 3.59E-02 ± 0.001 mGy/Mbq and 3.59E-02 mGy/Mbq
- Absorbed dose (AD average) Rectum [1]: 3.75E-02 mGy/Mbq
- Absorbed dose (AD average) Red Marrow [1]: 4.37E-02 ± 0.002 mGy/Mbq and 4.37E-02 mGy/Mbq
- Absorbed dose (AD average) Right colon [1]: 3.76E-02 mGy/Mbq
- Absorbed dose (AD average) Salivary Glands [1]: 1.22E-01 ± 0.01 mGy/Mbq and 1.22E-01 mGy/Mbq
- Absorbed dose (AD average) Small Intestine [1]: 3.72E-02 ± 0.002 mGy/Mbq and 3.72E-02 mGy/Mbq
- Absorbed dose (AD average) Spleen [1]: 8.87E-02 ± 0.004 mGy/Mbq and 8.87E-02 mGy/Mbq
- Absorbed dose (AD average) Stomach Wall [1]: 3.75E-02 mGy/Mbq
- Absorbed dose (AD average) Thymus [1]: 3.72E-02 mGy/Mbq
- Absorbed dose (AD average) Thyroid [1]: 3.64E-02 mGy/Mbq
- Absorbed dose (AD average) Total Body [1]: 4.70E-02 ± 0.002 mGy/Mbq and 4.70E-02 mGy/Mbq
- Absorbed dose (AD average) Urinary Bladder Wall [1]: 3.70E-02 mGy/Mbq
- Absorbed dose (AD average) Uterus [1]: 3.73E-02 mGy/Mbq
- Effective dose (average) [1]: 4.10E-02
- Absorbed dose (AD average) Adrenals [2]: 1.05E-02 mGy/Mbq
- Absorbed dose (AD average) Brain [2]: 2.80E-02 mGy/Mbq
- Absorbed dose (AD average) Esophagus [2]: 2.84E-02 mGy/Mbq
- Absorbed dose (AD average) Eyes [2]: 2.80E-02 mGy/Mbq
- Absorbed dose (AD average) Gallbladder Wall [2]: 3.02E-02 mGy/Mbq
- Absorbed dose (AD average) Heart Wall [2]: 2.78E-02 mGy/Mbq
- Absorbed dose (AD average) Kidneys [2]: 2.84E-02 ± 0.001 mGy/Mbq and 2.84E-02 mGy/Mbq
- Absorbed dose (AD average) Left colon [2]: 2.85E-02 mGy/Mbq
- Absorbed dose (AD average) Liver [2]: 8.31E-02 ± 0.003 mGy/Mbq and 8.31E-02 mGy/Mbq
- Absorbed dose (AD average) Lungs [2]: 4.73E-02 ± 0.01 mGy/Mbq and 4.73E-02 mGy/Mbq
- Absorbed dose (AD average) Osteogenic Cells [2]: 8.97E-02 ± 0.003 mGy/Mbq and 8.97E-02 mGy/Mbq
- Absorbed dose (AD average) Pancreas [2]: 2.88E-02 ± 0.001 mGy/Mbq and 2.88E-02 mGy/Mbq
- Absorbed dose (AD average) Prostate [2]: 2.81E-02 mGy/Mbq
- Absorbed dose (AD average) Rectum [2]: 2.84E-02 mGy/Mbq
- Absorbed dose (AD average) Red Marrow [2]: 3.45E-02 ± 0.001 mGy/Mbq and 3.45E-02 mGy/Mbq
- Absorbed dose (AD average) Right colon [2]: 2.86E-02 mGy/Mbq
- Absorbed dose (AD average) Salivary Glands [2]: 1.00E-01 ± 0.01 mGy/Mbq and 1.00E-01 mGy/Mbq
- Absorbed dose (AD average) Small Intestine [2]: 2.85E-02 ± 0.001 mGy/Mbq and 2.85E-02 mGy/Mbq
- Absorbed dose (AD average) Spleen [2]: 7.27E-02 ± 0.003 mGy/Mbq and 7.27E-02 mGy/Mbq
- Absorbed dose (AD average) Stomach Wall [2]: 2.84E-02 mGy/Mbq
- Absorbed dose (AD average) Testes [2]: 2.72E-02 mGy/Mbq
- Absorbed dose (AD average) Thymus [2]: 2.79E-02 mGy/Mbq
- Absorbed dose (AD average) Thyroid [2]: 2.81E-02 mGy/Mbq
- Absorbed dose (AD average) Total Body [2]: 3.70E-02 ± 0.002 mGy/Mbq and 3.70E-02 mGy/Mbq
- Absorbed dose (AD average) Urinary Bladder Wall [2]: 2.81E-02 mGy/Mbq
- Effective dose (average) (ICRP 89 Adult Male, extrapolated, in mSv/MBq (unit assumed)): 2.91E-02
- higher tissue doses vs. the 177Lu-labeled analogs (human extrapolation, average over tissues): ~ 38%
